# How the values were obtained:
# ROCK-II(r) = ROCK-II(r) (Rattus norvegicus, UniProt Q62868); assay: Kinase Profiler; format: biochemical
# Protocol: (§1) Blood cell counts, kinase profiler, safety screen, bacterial cytotoxicity, Ames, micronucleus assays were performed by the company Eurofins (France). The kinase profiler was performed by the company Eurofins (Discovery, Panlab and Cerep).
# Fer(h) = Fer(h) (Homo sapiens, UniProt P16591); assay: Kinase Profiler; format: biochemical
# Protocol: (§2) The kinase profiler was performed by the company Eurofins (Discovery, Panlab and Cerep).
# ALK6(h) = ALK6(h) (Homo sapiens, UniProt O00238); assay: Kinase Profiler; format: biochemical
# Protocol: as §2
# Monoamine Oxidase MAO-A = Monoamine Oxidase MAO-A (Homo sapiens, UniProt P21397); assay: Safety screen; format: biochemical
# Protocol: as §1
# [1] = molecular target: Cholecystokinin CCK1 (CCKA) (Homo sapiens, UniProt P32238); assay: Safety screen; format: binding
# Protocol: (§3) Blood cell counts, kinase profiler, safety screen, bacterial cytotoxicity, Ames, micronucleus assays were performed by the company Eurofins (France).
# HPK1(h) = HPK1(h) (Homo sapiens, UniProt Q92918); assay: Kinase Profiler; format: biochemical
# Protocol: as §2
# Flt3(h) = Flt3(h) (Homo sapiens, UniProt P36888); assay: Kinase Profiler; format: biochemical
# Protocol: as §2
# IGF-1R(h), activated = IGF-1R(h), activated (Homo sapiens, UniProt P08069); assay: Kinase Profiler; format: biochemical
# Protocol: as §1
# Dopamine D2S = Dopamine D2S (Homo sapiens, UniProt P14416); assay: Safety screen; format: binding
# Protocol: as §3
# WNK1(h) = WNK1(h) (Homo sapiens, UniProt Q9H4A3); assay: Kinase Profiler; format: biochemical
# Protocol: as §2
# ATR/ATRIP(h) = ATR/ATRIP(h) (Homo sapiens, UniProt Q13535); assay: Kinase Profiler; format: biochemical
# Protocol: as §2
# PKCη(h) = PKCη(h) (Homo sapiens, UniProt P24723); assay: Kinase Profiler; format: biochemical
# Protocol: as §2
# MKK6(h) = MKK6(h) (Homo sapiens, UniProt P52564); assay: Kinase Profiler; format: biochemical
# Protocol: as §2
# NIH/3T3 cell adhesion = assay: Cell adhesion assay (xCELLigence impedance); format: cell-based; settings: 10^-5 M
# Protocol: NIH3T3cells (10000/well) were seeded in a 96 well plate microtiter xCELLigence assay plate (E-Plate) (ACEA Biosciences Inc.) and placed on the Real-time xCELLigence Cell Analyzer (Roche Applied Science) platform at 37°C to measure the “cell index” every 5 min for a period of 6 h. The cell index unit is defined as (Rn − Rb)/15. Rn is the cell electrode impedance of the well when it contains cells. Rb is the background impedance of the well with the media alone.
# Supplementary Fig. 3: Example of one pharmacophore model used for virtual screening. (a) The pharmacophore model shown was created based on RAC1 (grey) and NSC23766 (orange) interaction. […] (b) Impact of different screening molecules (10^-5 M) on NIH/3T3 cell adhesion (xCELLingence Real-time cellanalysis, Agilent), migration (CYTOO Mobility plates) and proliferation (xCELLingence Real-time cell analysis, Agilent) .The level of RAC activation is determinedby the detection of RAC-GTP (pull-down assay) in NIH/3T3 cell treated with EGF (10 ng/mL) and the differentmolecules and normalize to the level of RAC activity measuredin the presenceof the reference RAC inhibitor EHT1864.
# Supplementary Fig. 4: A41 inhibits RAC-dependent cell functions. (a) Representative records of single NIH/3T3 cell migration on micropatterned fibronectin lines (CYTOO Mobility plates) in the absence (Control)and presenceA41 at 10^-5 M (left panel) and corresponding quantification of migration speed (right panel) (scale bar: 20µm). […] (b) Typical curves showing the cell index representing the adhesion of NIH/3T3 fibroblast (xCELLingence Real-time cell analysis, Agilent) under control condition (Control) and pre-treated with 10 µM A41 or NSC23766 (left panel) and corresponding quantification of cell adhesion speed (right panel). […]
# Lck(h) activated = Lck(h) activated (Homo sapiens, UniProt P06239); assay: Kinase Profiler; format: biochemical
# Protocol: as §2
# IGF-1R(h), activated, sequence (P08069 31-1367): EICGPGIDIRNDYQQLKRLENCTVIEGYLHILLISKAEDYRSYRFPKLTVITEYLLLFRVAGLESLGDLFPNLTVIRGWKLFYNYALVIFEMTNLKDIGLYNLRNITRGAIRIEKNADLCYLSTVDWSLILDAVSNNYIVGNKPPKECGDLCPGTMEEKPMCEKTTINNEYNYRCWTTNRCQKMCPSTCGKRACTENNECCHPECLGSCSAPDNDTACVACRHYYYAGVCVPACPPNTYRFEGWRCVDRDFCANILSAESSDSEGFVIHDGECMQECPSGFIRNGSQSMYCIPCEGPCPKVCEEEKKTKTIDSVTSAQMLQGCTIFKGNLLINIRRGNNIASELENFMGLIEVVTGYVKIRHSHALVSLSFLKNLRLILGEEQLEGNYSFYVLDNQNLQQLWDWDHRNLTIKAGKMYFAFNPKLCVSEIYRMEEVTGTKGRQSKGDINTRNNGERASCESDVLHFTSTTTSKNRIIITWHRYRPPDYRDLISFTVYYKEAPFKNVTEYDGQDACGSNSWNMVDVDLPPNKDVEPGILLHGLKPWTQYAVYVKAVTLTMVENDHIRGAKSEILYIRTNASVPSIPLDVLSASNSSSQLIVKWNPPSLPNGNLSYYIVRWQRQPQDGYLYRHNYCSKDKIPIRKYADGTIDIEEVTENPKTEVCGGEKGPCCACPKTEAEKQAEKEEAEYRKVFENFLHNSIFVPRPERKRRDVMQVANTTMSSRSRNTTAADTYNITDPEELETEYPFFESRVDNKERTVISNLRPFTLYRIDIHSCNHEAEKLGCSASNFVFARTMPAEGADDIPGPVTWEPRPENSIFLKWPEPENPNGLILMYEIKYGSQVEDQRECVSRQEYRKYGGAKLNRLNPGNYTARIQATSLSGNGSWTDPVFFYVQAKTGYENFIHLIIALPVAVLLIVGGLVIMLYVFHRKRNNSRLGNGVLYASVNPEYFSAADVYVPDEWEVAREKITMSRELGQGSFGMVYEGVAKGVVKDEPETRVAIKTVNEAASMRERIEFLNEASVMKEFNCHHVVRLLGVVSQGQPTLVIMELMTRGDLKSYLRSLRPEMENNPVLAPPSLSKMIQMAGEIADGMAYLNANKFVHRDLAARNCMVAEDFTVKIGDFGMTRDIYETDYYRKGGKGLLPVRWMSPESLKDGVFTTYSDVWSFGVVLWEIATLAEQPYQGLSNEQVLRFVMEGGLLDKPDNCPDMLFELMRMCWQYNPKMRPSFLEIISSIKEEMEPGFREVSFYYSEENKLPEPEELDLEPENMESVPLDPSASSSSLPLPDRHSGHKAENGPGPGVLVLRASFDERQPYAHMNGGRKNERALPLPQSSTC
# ROCK-II(r), sequence (Q62868 2-543 limits assumed): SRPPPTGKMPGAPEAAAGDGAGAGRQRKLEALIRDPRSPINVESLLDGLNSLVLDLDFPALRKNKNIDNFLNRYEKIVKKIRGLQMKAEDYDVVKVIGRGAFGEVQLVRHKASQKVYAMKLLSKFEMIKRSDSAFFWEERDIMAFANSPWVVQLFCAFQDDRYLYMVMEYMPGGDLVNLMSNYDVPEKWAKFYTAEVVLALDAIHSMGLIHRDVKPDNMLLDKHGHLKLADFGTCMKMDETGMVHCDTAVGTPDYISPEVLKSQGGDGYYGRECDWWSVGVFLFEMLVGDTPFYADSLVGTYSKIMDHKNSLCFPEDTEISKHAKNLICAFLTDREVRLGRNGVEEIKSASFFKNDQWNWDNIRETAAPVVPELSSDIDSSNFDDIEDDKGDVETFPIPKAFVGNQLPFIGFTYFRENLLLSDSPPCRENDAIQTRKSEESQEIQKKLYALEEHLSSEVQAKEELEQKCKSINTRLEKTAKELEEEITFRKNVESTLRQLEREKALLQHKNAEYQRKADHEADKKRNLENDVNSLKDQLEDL
# Flt3(h), sequence (P36888 27-993): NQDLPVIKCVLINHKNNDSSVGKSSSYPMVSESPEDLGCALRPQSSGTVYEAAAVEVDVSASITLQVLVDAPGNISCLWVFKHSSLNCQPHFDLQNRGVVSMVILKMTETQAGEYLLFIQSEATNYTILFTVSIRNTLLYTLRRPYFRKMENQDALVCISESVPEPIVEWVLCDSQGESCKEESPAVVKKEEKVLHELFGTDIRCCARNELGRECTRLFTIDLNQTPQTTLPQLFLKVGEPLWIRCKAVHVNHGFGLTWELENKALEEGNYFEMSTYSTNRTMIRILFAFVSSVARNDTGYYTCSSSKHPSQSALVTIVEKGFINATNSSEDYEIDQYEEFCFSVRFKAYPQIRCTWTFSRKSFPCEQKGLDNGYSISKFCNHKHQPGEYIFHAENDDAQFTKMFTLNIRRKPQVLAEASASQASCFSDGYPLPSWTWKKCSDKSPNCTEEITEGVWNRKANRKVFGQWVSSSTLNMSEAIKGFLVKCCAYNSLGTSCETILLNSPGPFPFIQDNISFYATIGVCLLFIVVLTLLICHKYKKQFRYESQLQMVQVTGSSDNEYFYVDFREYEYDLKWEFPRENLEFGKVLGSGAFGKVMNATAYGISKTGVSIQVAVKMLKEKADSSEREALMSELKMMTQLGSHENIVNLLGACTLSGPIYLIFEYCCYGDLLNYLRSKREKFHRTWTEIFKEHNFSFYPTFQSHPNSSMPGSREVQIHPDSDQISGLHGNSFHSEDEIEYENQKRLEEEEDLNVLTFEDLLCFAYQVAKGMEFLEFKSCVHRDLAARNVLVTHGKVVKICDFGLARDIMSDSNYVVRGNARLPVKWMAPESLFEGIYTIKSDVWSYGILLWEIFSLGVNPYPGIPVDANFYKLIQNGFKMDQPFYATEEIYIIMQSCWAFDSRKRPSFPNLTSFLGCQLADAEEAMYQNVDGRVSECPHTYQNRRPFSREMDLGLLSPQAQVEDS
# Dopamine D2S, sequence (P14416 1-414 isoform P14416-2): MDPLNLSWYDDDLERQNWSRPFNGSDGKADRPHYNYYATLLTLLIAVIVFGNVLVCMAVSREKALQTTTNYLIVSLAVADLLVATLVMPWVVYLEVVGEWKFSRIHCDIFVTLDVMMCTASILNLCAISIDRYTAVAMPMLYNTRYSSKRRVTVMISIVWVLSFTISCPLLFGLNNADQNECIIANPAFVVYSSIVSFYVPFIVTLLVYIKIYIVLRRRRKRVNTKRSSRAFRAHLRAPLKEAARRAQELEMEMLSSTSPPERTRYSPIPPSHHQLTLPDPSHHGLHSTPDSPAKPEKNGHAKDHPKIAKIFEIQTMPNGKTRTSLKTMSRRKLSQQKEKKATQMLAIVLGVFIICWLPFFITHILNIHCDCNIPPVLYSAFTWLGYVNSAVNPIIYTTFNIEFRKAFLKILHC
# PKCη(h), sequence (P24723 whole entry): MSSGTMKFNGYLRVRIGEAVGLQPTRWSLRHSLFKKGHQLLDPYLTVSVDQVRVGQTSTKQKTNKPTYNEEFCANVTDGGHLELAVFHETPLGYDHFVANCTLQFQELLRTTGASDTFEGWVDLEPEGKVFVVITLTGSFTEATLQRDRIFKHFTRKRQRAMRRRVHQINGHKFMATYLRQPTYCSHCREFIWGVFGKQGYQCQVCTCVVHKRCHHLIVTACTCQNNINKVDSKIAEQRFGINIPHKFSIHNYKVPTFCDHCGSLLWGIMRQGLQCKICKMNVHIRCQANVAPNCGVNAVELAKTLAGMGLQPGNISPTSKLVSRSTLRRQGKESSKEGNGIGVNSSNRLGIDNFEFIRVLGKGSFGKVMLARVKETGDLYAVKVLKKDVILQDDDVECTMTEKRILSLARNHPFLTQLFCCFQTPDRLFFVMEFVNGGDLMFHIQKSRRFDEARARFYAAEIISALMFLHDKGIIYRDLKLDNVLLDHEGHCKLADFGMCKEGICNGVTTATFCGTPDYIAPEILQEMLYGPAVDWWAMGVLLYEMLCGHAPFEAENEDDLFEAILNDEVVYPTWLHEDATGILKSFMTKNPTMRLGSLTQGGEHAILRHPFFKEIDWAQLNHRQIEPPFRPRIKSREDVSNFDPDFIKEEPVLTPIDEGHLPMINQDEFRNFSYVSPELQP
# Cholecystokinin CCK1 (CCKA), sequence (P32238 whole entry): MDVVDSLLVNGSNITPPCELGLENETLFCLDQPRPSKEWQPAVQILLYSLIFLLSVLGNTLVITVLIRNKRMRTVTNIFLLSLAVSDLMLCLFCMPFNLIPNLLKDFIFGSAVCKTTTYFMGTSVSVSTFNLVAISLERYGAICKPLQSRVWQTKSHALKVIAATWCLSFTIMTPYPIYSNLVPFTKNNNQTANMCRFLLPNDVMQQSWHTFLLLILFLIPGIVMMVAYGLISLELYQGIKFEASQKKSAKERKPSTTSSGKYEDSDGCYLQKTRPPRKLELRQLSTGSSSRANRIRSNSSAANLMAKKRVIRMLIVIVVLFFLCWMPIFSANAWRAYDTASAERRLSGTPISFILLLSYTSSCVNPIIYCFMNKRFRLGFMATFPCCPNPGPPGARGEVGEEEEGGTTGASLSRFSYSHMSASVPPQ
# ALK6(h), sequence (O00238 14-502): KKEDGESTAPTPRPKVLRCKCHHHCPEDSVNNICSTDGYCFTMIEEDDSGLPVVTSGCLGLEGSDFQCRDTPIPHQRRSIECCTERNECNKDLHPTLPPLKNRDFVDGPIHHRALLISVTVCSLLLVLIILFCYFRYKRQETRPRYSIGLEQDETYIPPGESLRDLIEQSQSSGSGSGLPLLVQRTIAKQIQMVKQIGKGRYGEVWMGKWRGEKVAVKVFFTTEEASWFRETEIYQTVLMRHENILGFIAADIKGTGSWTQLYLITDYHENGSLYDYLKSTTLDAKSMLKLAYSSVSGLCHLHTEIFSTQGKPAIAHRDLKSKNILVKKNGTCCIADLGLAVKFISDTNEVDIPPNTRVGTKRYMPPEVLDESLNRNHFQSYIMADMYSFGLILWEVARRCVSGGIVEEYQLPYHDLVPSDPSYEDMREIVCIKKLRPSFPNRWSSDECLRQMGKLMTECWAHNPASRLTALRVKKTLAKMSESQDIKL
structure (smiles),measurement,setting,value
COc1ccc(OC)c(NS(=O)(=O)c2ccc(NC(=O)CCSc3ccc(C)cc3)cc2)c1 [Compound A41],Activity(%),ROCK-II(r),110%
same,Activity(%),Fer(h),114%
same,Activity(%),ALK6(h),104%
same,% inh.,Monoamine Oxidase MAO-A,10%
same,% inh.,[1],31%
same,Activity(%),HPK1(h),98%
same,Activity(%),Flt3(h),98%
same,Activity(%),"IGF-1R(h), activated",108%
same,% inh.,Dopamine D2S,35%
same,Activity(%),WNK1(h),96%
same,Activity(%),ATR/ATRIP(h),93%
same,Activity(%),PKCη(h),118%
same,Activity(%),MKK6(h),90%
same,cell adhesion,NIH/3T3 cell adhesion,efficiently inhibited both functions
same,Activity(%),Lck(h) activated,90%

# Reference: PMC12281424, “A Rac-specific competitive inhibitor of guanine nucleotide binding reduces metastasis in triple-negative breast cancer” (Cell Reports Medicine, 2025)
